Test results reported in patent US4803303A, “N-substituted pseudo-aminosugars, their production and use” (Takeda Chemical Industries, Ltd., priority 1981, dated 1989).
Structures can show the parent of a compound that is named as a salt.

These molecules were tested against maltase (from porcine intestinal mucosa) (assay: inhibitory activity against maltase prepared from porcine intestinal mucosa (substrate maltose)). Conditions: given in the examples; read-out: IC50 (maltase).
Type: biochemical
Description: (§1) The inhibitory activities of the compounds of this invention against α-glucosidase (yeast, type I, produced by Sigma Chemical Co. the United States of America) as well as maltase and saccharase prepared from porcine intestinal mucosa (prepared in accordance with the procedure as described by B. Borgstro m and A. Dahlgvist in Acta Chem. Scand.; 12, 1997-2006, (1958)), when maltose and sucrose are used as a substrate, are determined by adding to 0.25 ml of a solution of an enzyme prepared by diluting suitably with 0.02M phosphate buffer (pH 6.8) 0.5 ml of a solution of an inhibitory substance to be tested in the same buffer and 0.25 ml of 0.05M maltose or 0.05M sucrose as the substrate in the same buffer, allowing the mixture to react at 37° C. for 10 minutes, then adding 3 ml of Glucose B-Test Reagent (a glucose oxidase reagent for measurement of glucose, produced by Wako Pure Chemical Co., Japan), further warming the mixture at 37° C. for 20 minutes, and measuring the absorbance of the reaction solution at 505 nm. […]

Question: OCC(N[C@H]1C[C@H](CO)[C@@H](O)[C@H](O)[C@H]1O)c1ccccc1 (stereo partly drawn) [N-[α-(hydroxymethyl)benzyl]validamine] was tested. Which IC50 did it give?
Answer: 4500 nM

Question: Which IC50 does the source give for OCC(N[C@H]1C[C@H](CO)[C@@H](O)[C@H](O)[C@H]1O)[C@@H](O)[C@H](O)[C@H](O)CO (stereo partly drawn) [Example 19, N-(D-arabino-2,3,4,5-tetrahydroxy-1-hydroxymethylpentyl)validamine] here?
Answer: 590 nM

Question: Which IC50 does the source give for OC[C@@]1(O)C[C@H](NC2CCCCC2)[C@H](O)[C@@H](O)[C@@H]1O [Example 37, N-cyclohexylvaliolamine] here?
Answer: 410 nM

Question: How did the IC50 turn out when OC[C@H]1C[C@H](NCC(O)COc2ccccc2)[C@H](O)[C@@H](O)[C@@H]1O (some centres unmarked) [Example 18, N-(2-hydroxy-3-phenoxypropyl)validamine] was run?
Answer: 3400 nM

Question: OC[C@@]1(O)C[C@H](NC2CCCC2O)[C@H](O)[C@@H](O)[C@@H]1O (single isomer, unassigned) [Example 38 Isomer showing [α]D^24-16.2°, N-(2-hydroxycyclopentyl)valiolamine] was tested. Which IC50 did it give?
Answer: 58 nM

Question: For COc1ccccc1C(O)CN[C@H]1C[C@](O)(CO)[C@@H](O)[C@H](O)[C@H]1O (stereo partly drawn) [Example 41, N-(β-hydroxy-2-methoxyphenetyl)valiolamine], which IC50 is on record?
Answer: 63 nM

Question: Which IC50 does the source give for CC(C)(C)c1cc(CN[C@H]2C[C@](O)(CO)[C@@H](O)[C@H](O)[C@H]2O)cc(C(C)(C)C)c1O [Example 40, N-(3,5,-di-tert-butyl-4-hydroxybenzyl)valiolamine] here?
Answer: 43 nM

Same assay, conditions: read-out: The concentrations of 50% inhibition against maltase (substrate:maltose) IC50; Table 1; porcine intestinal mucosa maltase, substrate maltose, pH 6.8, 37° C.

Question: How did the IC50 turn out when OCC(N[C@H]1C[C@H](CO)[C@@H](O)[C@H](O)[C@H]1O)C(O)c1ccccc1 (some centres unmarked) [drawing 11] was run?
Answer: 32000 nM

Question: Which IC50 does the source give for OC[C@H]1C[C@H](NCCCc2ccccc2)[C@H](O)[C@@H](O)[C@@H]1O [drawing 14] here?
Answer: 92000 nM

Question: Which IC50 does the source give for OC[C@@]1(O)C[C@H](NCC(O)c2ccccc2)[C@H](O)[C@@H](O)[C@@H]1O (single isomer, unassigned) [drawing 8] here?
Answer: 50 nM

Question: For OC[C@@]1(O)C[C@H](NCC(O)c2ccccc2)[C@H](O)[C@@H](O)[C@@H]1O (single isomer, unassigned) [drawing 9], which IC50 is on record?
Answer: 5.8 nM

Question: Which IC50 does the source give for OC[C@H]1C[C@H](NCC(O)c2ccccc2)[C@H](O)[C@@H](O)[C@@H]1O (some centres unmarked) [drawing 10] here?
Answer: 1700 nM

Question: With OC[C@@]1(O)C[C@H](NCC(O)COc2ccccc2)[C@H](O)[C@@H](O)[C@@H]1O (some centres unmarked) [drawing 12] as the molecule, how does the IC50 read?
Answer: 33 nM

Question: How did the IC50 turn out when OC[C@@]1(O)C[C@H](NCCc2ccccc2)[C@H](O)[C@@H](O)[C@@H]1O [drawing 13] was run?
Answer: 100 nM

Question: Which IC50 does the source give for CC(C)(C)c1cc(CN[C@H]2C[C@H](CO)[C@@H](O)[C@H](O)[C@H]2O)cc(C(C)(C)C)c1O here?
Answer: 36000 nM

Question: For OCC(CO)N[C@H]1C[C@](O)(CO)[C@@H](O)[C@H](O)[C@H]1O [drawing 7], which IC50 is on record?
Answer: 15 nM

The molecules below were run against T1, saccharase (from porcine intestinal mucosa) (Sus scrofa, UniProt P56729) (assay: inhibitory activity against saccharase prepared from porcine intestinal mucosa (substrate sucrose)). Conditions: not given.
T1 construct: maltase and saccharase prepared from porcine intestinal mucosa; from tissue; host or cells: porcine intestinal mucosa
Type: biochemical
Description: as §1

T1 sequence (P56729 with tags, fused parts or gaps limits assumed): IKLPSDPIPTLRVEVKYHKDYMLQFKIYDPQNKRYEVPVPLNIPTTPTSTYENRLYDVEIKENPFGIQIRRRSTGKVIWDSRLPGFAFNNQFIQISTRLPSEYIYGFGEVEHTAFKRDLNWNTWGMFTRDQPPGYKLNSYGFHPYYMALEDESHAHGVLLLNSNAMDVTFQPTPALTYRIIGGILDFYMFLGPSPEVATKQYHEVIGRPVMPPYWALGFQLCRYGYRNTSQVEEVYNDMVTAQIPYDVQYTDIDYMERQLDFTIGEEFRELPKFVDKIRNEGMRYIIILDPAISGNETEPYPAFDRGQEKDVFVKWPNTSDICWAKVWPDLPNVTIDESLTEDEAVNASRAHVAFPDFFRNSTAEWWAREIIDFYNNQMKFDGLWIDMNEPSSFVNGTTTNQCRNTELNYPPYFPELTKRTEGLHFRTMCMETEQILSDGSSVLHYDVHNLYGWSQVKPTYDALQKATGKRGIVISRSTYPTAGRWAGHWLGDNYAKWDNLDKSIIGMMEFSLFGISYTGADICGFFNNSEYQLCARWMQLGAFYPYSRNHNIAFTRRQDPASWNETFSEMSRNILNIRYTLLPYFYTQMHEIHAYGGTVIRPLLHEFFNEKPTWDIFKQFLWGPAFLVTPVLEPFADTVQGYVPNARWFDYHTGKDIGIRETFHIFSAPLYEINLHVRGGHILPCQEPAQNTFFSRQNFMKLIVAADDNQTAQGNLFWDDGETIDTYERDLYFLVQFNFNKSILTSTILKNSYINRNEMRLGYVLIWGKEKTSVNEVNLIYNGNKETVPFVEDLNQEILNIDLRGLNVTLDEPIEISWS
T1 sequence (P56729 with tags, fused parts or gaps partner limits assumed): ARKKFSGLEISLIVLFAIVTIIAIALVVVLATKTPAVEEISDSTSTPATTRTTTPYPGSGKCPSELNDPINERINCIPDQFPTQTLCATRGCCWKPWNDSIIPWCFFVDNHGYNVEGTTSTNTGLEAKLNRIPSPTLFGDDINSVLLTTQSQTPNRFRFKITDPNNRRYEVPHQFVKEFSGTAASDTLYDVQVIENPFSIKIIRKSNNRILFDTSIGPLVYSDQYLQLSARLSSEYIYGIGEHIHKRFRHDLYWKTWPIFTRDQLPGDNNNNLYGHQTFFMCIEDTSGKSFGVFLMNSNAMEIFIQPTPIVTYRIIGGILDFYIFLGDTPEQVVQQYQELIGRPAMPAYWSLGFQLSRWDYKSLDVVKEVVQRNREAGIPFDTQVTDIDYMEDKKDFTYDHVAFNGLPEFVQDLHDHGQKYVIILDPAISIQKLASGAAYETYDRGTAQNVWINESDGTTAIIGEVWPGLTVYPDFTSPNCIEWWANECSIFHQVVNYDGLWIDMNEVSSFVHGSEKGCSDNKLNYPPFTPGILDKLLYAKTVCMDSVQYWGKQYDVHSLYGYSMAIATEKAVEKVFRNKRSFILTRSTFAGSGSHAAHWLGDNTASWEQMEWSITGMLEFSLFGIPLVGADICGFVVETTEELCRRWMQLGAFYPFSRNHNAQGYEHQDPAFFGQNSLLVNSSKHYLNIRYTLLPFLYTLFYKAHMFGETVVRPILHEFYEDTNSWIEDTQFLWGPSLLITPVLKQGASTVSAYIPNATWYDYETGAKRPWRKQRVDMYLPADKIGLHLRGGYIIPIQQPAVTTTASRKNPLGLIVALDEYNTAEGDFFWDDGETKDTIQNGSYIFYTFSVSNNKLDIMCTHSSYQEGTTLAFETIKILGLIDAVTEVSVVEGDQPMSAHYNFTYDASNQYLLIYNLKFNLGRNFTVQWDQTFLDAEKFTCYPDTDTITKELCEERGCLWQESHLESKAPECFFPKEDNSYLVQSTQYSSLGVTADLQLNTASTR

Question: OCC(CO)N[C@H]1C[C@](O)(CO)[C@@H](O)[C@H](O)[C@H]1O [drawing 17] was tested. Which IC50 did it give?
Answer: 4.6 nM

Same assay, conditions: IC50 (saccharase), given in the examples

Question: For OC[C@H]1C[C@H](NC2CCCC2O)[C@H](O)[C@@H](O)[C@@H]1O (some centres unmarked) [Example 21, N-(2-hydroxycyclopentyl)validamine], which IC50 is on record?
Answer: 130 nM

Question: For OC[C@@]1(O)C[C@H](NC2CCCC2)[C@H](O)[C@@H](O)[C@@H]1O [Example 39, N-cyclopentylvaliolamine], which IC50 is on record?
Answer: 25 nM

Question: For OC[C@@]1(O)C[C@H](NC2CCCC2O)[C@H](O)[C@@H](O)[C@@H]1O (single isomer, unassigned) [Example 38 Isomer showing [α]D^24-16.2°, N-(2-hydroxycyclopentyl)valiolamine], which IC50 is on record?
Answer: 24 nM

Question: Which IC50 does the source give for OC[C@H]1C[C@H](NC2CCCCC2O)[C@H](O)[C@@H](O)[C@@H]1O (some centres unmarked) [Example 20, N-(2-hydroxycyclohexyl)validamine] here?
Answer: 96 nM

Question: For OC[C@@]1(O)C[C@H](NC2CCCC2O)[C@H](O)[C@@H](O)[C@@H]1O (single isomer, unassigned) [Example 38 Isomer showing [α]D^24 +40.4°, N-(2-hydroxycyclopentyl)valiolamine], which IC50 is on record?
Answer: 130 nM

Same assay, conditions: Table 2; porcine intestinal mucosa saccharase, substrate sucrose, pH 6.8, 37° C.

Question: For OC[C@@]1(O)C[C@H](NCC(O)COc2ccccc2)[C@H](O)[C@@H](O)[C@@H]1O (some centres unmarked) [drawing 20], which IC50 is on record?
Answer: 8.6 nM

Question: With OC[C@@]1(O)C[C@H](NCc2ccc(Br)cc2)[C@H](O)[C@@H](O)[C@@H]1O as the molecule, how does the IC50 read?
Answer: 15 nM

Question: With OC[C@H]1C[C@H](NCCCc2ccccc2)[C@H](O)[C@@H](O)[C@@H]1O [drawing 24] as the molecule, how does the IC50 read?
Answer: 1900 nM

Question: Which IC50 does the source give for OC[C@@]1(O)C[C@H](NCC(O)c2ccccc2)[C@H](O)[C@@H](O)[C@@H]1O (single isomer, unassigned) [drawing 18] here?
Answer: 19 nM

Question: CC(C)=CCC/C(C)=C/CN[C@H]1C[C@](O)(CO)[C@@H](O)[C@H](O)[C@H]1O was tested. Which IC50 did it give?
Answer: 11 nM

Question: OC[C@@]1(O)C[C@H](NCCc2ccccc2)[C@H](O)[C@@H](O)[C@@H]1O [drawing 26] was tested. Which IC50 did it give?
Answer: 2.3 nM

Question: Which IC50 does the source give for OCC(N[C@H]1C[C@H](CO)[C@@H](O)[C@H](O)[C@H]1O)C(O)c1ccccc1 (some centres unmarked) [drawing 33] here?
Answer: 260 nM

Question: OCC(O)C(O)C(O)C(O)CN[C@H]1C[C@](O)(CO)[C@@H](O)[C@H](O)[C@H]1O (some centres unmarked) was tested. Which IC50 did it give?
Answer: 36 nM

Question: How did the IC50 turn out when OC[C@@]1(O)C[C@H](NCC(O)c2ccccc2)[C@H](O)[C@@H](O)[C@@H]1O (single isomer, unassigned) [drawing 19] was run?
Answer: 2.9 nM

Question: How did the IC50 turn out when OC[C@H]1C[C@H](NCC(O)c2ccccc2)[C@H](O)[C@@H](O)[C@@H]1O (some centres unmarked) [drawing 32] was run?
Answer: 22 nM

Question: Which IC50 does the source give for OC[C@@]1(O)C[C@H](NCC2CCCCC2)[C@H](O)[C@@H](O)[C@@H]1O here?
Answer: 9.3 nM

Question: OCC1(O)CC(NCc2ccco2)C(O)C(O)C1O (centres unmarked) was tested. Which IC50 did it give?
Answer: 15 nM

Same assay, conditions: given in the examples; read-out: IC50 (saccharase)

Question: OC[C@@]1(O)C[C@H](NC2CCCCC2)[C@H](O)[C@@H](O)[C@@H]1O [Example 37, N-cyclohexylvaliolamine] was tested. Which IC50 did it give?
Answer: 15 nM

Question: For CC(C)=CCC/C(C)=C/CN[C@H]1C[C@H](CO)[C@@H](O)[C@H](O)[C@H]1O [Example 12, N-geranylvalidamine sulfate], which IC50 is on record?
Answer: 790 nM

Question: With COc1ccccc1C(O)CN[C@H]1C[C@](O)(CO)[C@@H](O)[C@H](O)[C@H]1O (stereo partly drawn) [Example 41, N-(β-hydroxy-2-methoxyphenetyl)valiolamine] as the molecule, how does the IC50 read?
Answer: 9.9 nM

Question: With OCC(N[C@H]1C[C@H](CO)[C@@H](O)[C@H](O)[C@H]1O)[C@@H](O)[C@H](O)[C@@H](O)CO (stereo partly drawn) [Example 16, N-(L-xylo-2,3,4,5-tetrahydroxy-1-hydroxymethylpentyl)validamine] as the molecule, how does the IC50 read?
Answer: 79 nM

Question: Which IC50 does the source give for CC(C)(C)c1cc(CN[C@H]2C[C@](O)(CO)[C@@H](O)[C@H](O)[C@H]2O)cc(C(C)(C)C)c1O [Example 40, N-(3,5,-di-tert-butyl-4-hydroxybenzyl)valiolamine] here?
Answer: 6.8 nM

What follows are molecules tested on α-glucoside hydrolase (assay: α-glucosidase inhibitory activity (general statement)). Conditions: statement in words.
Type: biochemical

Question: For N[C@H]1C[C@](O)(CO)[C@@H](O)[C@H](O)[C@H]1O [valiolamine, 1L(1S)-(1(OH),2,4,5/1,3)-5-amino-1-hydroxymethyl-1,2,3,4-cyclohexanetetrol], which α-glucosidase inhibitory activity is on record?
Answer: α-glucosidase inhibitory activity

Question: N[C@H]1C[C@H](CO)[C@@H](O)[C@H](O)[C@H]1O [validamine] was tested. Which α-glucosidase inhibitory activity did it give?
Answer: possesses a highly valuable action of suppressing the function of α-glucoside hydrolase
